Values joined by “and” are separate entries in the source; they are usually repeats but may differ in a detail not shown here. Equal values may be shown once. Where a name gives a salt, the structure may show the parent alone. Read-outs that look alike come from different tables or passages of the source.

For this test, the target named is Nav1.7 sodium channels (human SCN9A gene) (Homo sapiens (Human), UniProt Q15858). Briefly: Automated patch clamp (IonWorks Barracuda) of Nav1.7 stably expressed in CHO cells. In kind it is cell-based. As for the experimental part: The potencies of the compounds provided herein to block specific Na+ channels was measured using automated patch clamp electrophysiologically of Nav1.7 sodium channels (human SCN9A gene) stably expressed in CHO cells using the IonWorks™ Barracuda system. Currents were measured from the whole cell patch configuration. From a holding potential of −90 mV, membranes were subjected to a 200 ms pre-pulse to −120 mV, then pulsed to 0 mV to measure blockade of the tonic (resting) state. Inactivated state block was elicited by repolarization to −100 mV (20 ms pulse duration), followed by depolarization to 0 mV (20 ms pulse duration). Peak inward Na+ currents were measured in the presence of vehicle or various concentrations of the test compound to determine the percent block of current. Concentration-response relationships were used to calculate IC50 values for the illustrative compounds.
(In general: The patch-clamp technique gives a direct electrical read-out from membranes.)

[1] abbreviates: inactivated state block, CHO cells, read-out: Inactivated state IC50.
Where [2] appears, read: tonic (resting) state block, CHO cells, read-out: Tonic state IC50.
Where [3] appears, read: read-out: Inactivated state IC50.

Nav1.7 sodium channels (human SCN9A gene), sequence (Q15858 whole entry): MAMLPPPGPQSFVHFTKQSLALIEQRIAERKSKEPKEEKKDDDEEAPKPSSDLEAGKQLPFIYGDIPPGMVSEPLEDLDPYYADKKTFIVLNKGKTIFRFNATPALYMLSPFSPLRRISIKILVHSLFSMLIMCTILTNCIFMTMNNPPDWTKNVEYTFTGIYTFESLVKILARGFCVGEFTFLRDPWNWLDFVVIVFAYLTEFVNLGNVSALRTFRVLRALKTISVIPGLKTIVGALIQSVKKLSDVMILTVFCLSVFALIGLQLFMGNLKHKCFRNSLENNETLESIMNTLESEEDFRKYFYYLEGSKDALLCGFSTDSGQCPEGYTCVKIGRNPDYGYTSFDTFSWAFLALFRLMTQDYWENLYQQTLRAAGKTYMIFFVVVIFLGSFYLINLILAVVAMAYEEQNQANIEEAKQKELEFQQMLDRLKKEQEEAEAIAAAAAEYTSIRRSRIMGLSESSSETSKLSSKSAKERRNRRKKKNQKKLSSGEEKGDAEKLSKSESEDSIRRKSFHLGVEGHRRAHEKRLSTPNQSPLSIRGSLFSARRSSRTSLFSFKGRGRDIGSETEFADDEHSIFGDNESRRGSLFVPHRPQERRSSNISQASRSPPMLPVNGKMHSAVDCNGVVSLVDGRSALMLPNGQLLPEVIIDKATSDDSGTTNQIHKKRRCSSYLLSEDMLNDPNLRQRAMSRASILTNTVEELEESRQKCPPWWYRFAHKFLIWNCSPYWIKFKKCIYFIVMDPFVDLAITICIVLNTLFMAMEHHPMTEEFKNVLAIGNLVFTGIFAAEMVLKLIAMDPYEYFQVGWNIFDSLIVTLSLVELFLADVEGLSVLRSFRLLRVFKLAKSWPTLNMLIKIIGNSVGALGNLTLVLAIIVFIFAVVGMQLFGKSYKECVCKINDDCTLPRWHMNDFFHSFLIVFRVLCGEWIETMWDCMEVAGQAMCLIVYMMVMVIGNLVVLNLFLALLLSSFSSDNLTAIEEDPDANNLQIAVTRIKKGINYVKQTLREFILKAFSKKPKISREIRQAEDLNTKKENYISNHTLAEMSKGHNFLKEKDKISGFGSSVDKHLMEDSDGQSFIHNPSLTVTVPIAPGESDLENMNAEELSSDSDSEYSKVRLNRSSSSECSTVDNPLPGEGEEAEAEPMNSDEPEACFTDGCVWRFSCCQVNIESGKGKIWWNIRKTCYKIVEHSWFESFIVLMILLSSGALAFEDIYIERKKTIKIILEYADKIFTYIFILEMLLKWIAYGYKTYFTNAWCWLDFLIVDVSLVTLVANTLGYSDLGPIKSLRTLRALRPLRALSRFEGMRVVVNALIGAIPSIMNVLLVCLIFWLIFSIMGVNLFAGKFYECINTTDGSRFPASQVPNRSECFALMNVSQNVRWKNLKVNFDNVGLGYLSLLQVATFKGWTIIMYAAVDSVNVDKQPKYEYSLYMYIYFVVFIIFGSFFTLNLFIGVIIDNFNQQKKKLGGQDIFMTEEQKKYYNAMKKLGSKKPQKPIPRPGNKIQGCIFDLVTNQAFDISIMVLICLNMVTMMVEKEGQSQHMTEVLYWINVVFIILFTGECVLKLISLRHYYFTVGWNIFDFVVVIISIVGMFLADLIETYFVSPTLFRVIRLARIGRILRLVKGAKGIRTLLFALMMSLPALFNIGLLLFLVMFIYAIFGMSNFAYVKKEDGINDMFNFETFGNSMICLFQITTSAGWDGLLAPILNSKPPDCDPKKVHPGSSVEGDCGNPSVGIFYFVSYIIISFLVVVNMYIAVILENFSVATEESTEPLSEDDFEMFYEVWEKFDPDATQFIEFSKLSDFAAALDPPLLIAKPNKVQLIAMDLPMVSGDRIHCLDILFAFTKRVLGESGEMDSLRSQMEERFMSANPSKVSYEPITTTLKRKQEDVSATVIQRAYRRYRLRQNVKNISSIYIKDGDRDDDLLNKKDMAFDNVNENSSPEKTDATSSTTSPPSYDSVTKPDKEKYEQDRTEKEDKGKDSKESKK

Broadly, the IC50 is the concentration that inhibits the measured activity by half. As for `Nc1nc(NC(CO)CO)nnc1-c1cccc(Cl)c1Cl` [Compound 20, 2-((5-Amino-6-(2,3-dichlorophenyl)-1,2,4-triazin-3-yl)amino)propane-1,3-diol], the IC50 runs as follows: under setting [1], > 300 µM; under setting [2], > 200 µM.
For `Nc1nc(N2CCN(C[C@H](O)COCC3CCC3)CC2)nnc1-c1cccc(Cl)c1Cl` [Compound 80, (2S)-1-{4-[5-Amino-6-(2,3-dichlorophenyl)-1,2,4-triazin-3-yl]piperazin-1-yl}-3-(cyclobutylmethoxy)propan-2-ol] the same measures were < 50 µM and 70 µM.
Turning to `Nc1nc(N2CCN(C[C@H](O)COCC3CC3)CC2)nnc1-c1cccc(Cl)c1Cl` [Compound 83, (2S)-1-{4-[5-Amino-6-(2,3-dichlorophenyl)-1,2,4-triazin-3-yl]piperazin-1-yl}-3-(cyclopropylmethoxy)propan-2-ol], the IC50 under setting [1] is < 50 µM and the IC50 under setting [2] is 171 µM.
For `Nc1nc(N2CCN(C[C@H](O)COC3CCC3)CC2)nnc1-c1cccc(Cl)c1Cl` [Compound 84, (2S)-1-{4-[5-Amino-6-(2,3-dichlorophenyl)-1,2,4-triazin-3-yl]piperazin-1-yl}-3-(cyclobutyloxy)propan-2-ol], in that order: < 50 µM and 192 µM.
Regarding `Nc1nc(N2CCN(CC(F)(F)F)CC2)nnc1-c1cccc(Cl)c1Cl` [Compound 87, 6-(2,3-dichlorophenyl)-3-(4-(2,2,2-trifluoroethyl)piperazin-1-yl)-1,2,4-triazin-5-amine], the IC50 by setting is: under setting [1], < 50 µM; under setting [2], > 200 µM.
As to `Nc1nc(N2CCN(CCOC(F)(F)F)CC2)nnc1-c1cccc(Cl)c1Cl` [Compound 88, 6-(2,3-dichlorophenyl)-3-(4-(2-(trifluoromethoxy)ethyl)piperazin-1-yl)-1,2,4-triazin-5-amine], the 50% inhibitory concentration (IC50) by setting is: under setting [1], < 50 µM; under setting [2], 113 µM.
As to `CC(CS(=O)(=O)CCO)Nc1nnc(-c2cccc(Cl)c2Cl)c(N)n1` (stereo not drawn) [Compound 93, 2-((2-((5-amino-6-(2,3-dichlorophenyl)-1,2,4-triazin-3-yl)amino)propyl)sulfonyl)ethanol], the IC50 was > 300 µM under setting [1] and > 200 µM under setting [2].
Regarding `COCCOCCOCCN1CCN(c2nnc(-c3cc(F)cc(Cl)c3Cl)c(N)n2)CC1` [Compound 104, 3-N-(4′-N-mPEG3-piperazinyl) 5-fluoro lamotrigine], the IC50 reads like this: under setting [1], < 50 µM; under setting [2], > 200 µM.
As to `COCCOCCOCC(=O)N1CCN(c2nnc(-c3cccc(Cl)c3Cl)c(N)n2)CC1` [Compound 105, 3-N-mPEG2-CM-piperazinyl lamotrigine], the IC50 was > 300 µM under setting [1] and > 200 µM under setting [2].
`COCCOCCOCC(=O)N1CCC(Nc2nnc(-c3cccc(Cl)c3Cl)c(N)n2)CC1` [Compound 107, 3-N-(4′-N-mPEG2-CM piperidinyl) lamotrigine]: the IC50 under setting [1] is > 300 µM and the IC50 under setting [2] was > 200 µM.
Take `COCCOCCOCCN1CCC(Nc2nnc(-c3cccc(Cl)c3Cl)c(N)n2)CC1` [Compound 108, 3-N-(1-N-mPEG3-piperidin-4-yl) lamotrigine]: the IC50 under setting [1] was found to be 185 µM and the IC50 under setting [2] is > 200 µM.
`COCCOCCOCCN1C(C)CN(c2nnc(-c3cccc(Cl)c3Cl)c(N)n2)CC1C` (stereo not drawn) [Compound 111, 3-N-(4-N-mPEG3-3,5-dimethylpiperazinyl) lamotrigine]: the IC50 is < 50 µM under setting [1] and > 200 µM under setting [2].
For `Nc1nc(N2CCN[C@@H](CO)C2)nnc1-c1cccc(Cl)c1Cl` [Compound 122, (R)-5-amino-3-N-[3-(hydroxymethyl)piperazin-1-yl] lamotrigine diHCl] the same measures were > 150 µM and > 150 µM.
For the compound `Nc1nc(N2CCN3CCOC[C@@H]3C2)nnc1-c1cccc(Cl)c1Cl` [Compound 131, (S)-6-(2,3-dichlorophenyl)-3-(hexahydropyrazino[2,1-c][1,4]oxazin-8(1H)-yl)-1,2,4-triazin-5-amine di HCl salt], the IC50 reads like this: under setting [3], 187 µM; (read-out: Tonic state IC50) > 200 µM.
Turning to `Nc1nc(NC2CNC2)nnc1-c1cccc(Cl)c1Cl` [Compound 132, 3-N-(azetidin-3-yl) lamatrogine 2HCl salt], the IC50 by setting is: under setting [1], > 300 µM; under setting [2], > 200 µM.
On to `COC[C@@H](O)CN1CCN(c2nnc(-c3cccc(Cl)c3Cl)c(N)n2)C[C@H]1CO` [Compound 134, (S)-1-((S)-4-(5-amino-6-(2,3-dichlorophenyl)-1,2,4-triazin-3-yl)-2-(hydroxymethyl)piperazin-1-yl)-3-methoxypropan-2-ol], for which the IC50 is, setting by setting: under setting [1], > 300 µM and 225 µM; under setting [2], > 200 µM.
`Nc1nc(N2CCNC[C@H]2CO)nnc1-c1cccc(Cl)c1Cl` [Compound 135]: the IC50 under setting [1] is > 300 µM and the IC50 under setting [2] was > 200 µM.
For `CC(C)(C)OCC(O)CN1CCN(c2nnc(-c3cccc(Cl)c3Cl)c(N)n2)C[C@H]1CO` (stereo partly drawn) [Compound 136, 1-((S)-4-(5-amino-6-(2,3-dichlorophenyl)-1,2,4-triazin-3-yl)-2-(hydroxymethyl)piperazin-1-yl)-3-(tert-butoxy)propan-2-ol], the IC50 is 86.6 µM and 92.7 µM under setting [1]; > 200 µM under setting [2].
Turning to `COC[C@@H](O)CN1CCN(c2nnc(-c3cccc(Cl)c3Cl)c(N)n2)[C@H](CO)C1` [Compound 138, (S)-1-((S)-4-(5-amino-6-(2,3-dichlorophenyl)-1,2,4-triazin-3-yl)-3-(hydroxymethyl)piperazin-1-yl)-3-methoxypropan-2-ol], the IC50 is > 300 µM under setting [1] and > 200 µM under setting [2].
Turning to `CC(C)(C)OCC(O)CN1CCN(c2nnc(-c3cccc(Cl)c3Cl)c(N)n2)[C@H](CO)C1` (stereo partly drawn) [Compound 139, 1-((S)-4-(5-amino-6-(2,3-dichlorophenyl)-1,2,4-triazin-3-yl)-3-(hydroxymethyl)piperazin-1-yl)-3-(tert-butoxy)propan-2-ol], the IC50 under setting [1] was 103 µM and the IC50 under setting [2] is > 200 µM.
For `Nc1nc(N2CCN(CC(O)CO)C[C@H]2CO)nnc1-c1cccc(Cl)c1Cl` (stereo partly drawn) [Compound 140, 3-((S)-4-(5-amino-6-(2,3-dichlorophenyl)-1,2,4-triazin-3-yl)-3-(hydroxymethyl)piperazin-1-yl)propane-1,2-diol], the IC50 reads like this: under setting [3], > 300 µM; (read-out: Tonic state IC50) > 200 µM.
Regarding `Nc1nc(N2CCNCC23CC3)nnc1-c1cccc(Cl)c1Cl` [Compound 141, 6-(2,3-dichlorophenyl)-3-(4,7-diazaspiro[2.5]octan-4-yl)-1,2,4-triazin-5-amine], the half-maximal inhibitory concentration (IC50) was 149 µM under setting [1] and > 200 µM under setting [2].
With `CN(CCNC[C@H](O)C(F)(F)F)c1nnc(-c2cccc(Cl)c2Cl)c(N)n1` [Compound 147, (S)-3-((2-((5-amino-6-(2,3-dichlorophenyl)-1,2,4-triazin-3-yl)(methyl)amino)ethyl)amino)-1,1,1-trifluoropropan-2-ol], the IC50 is < 50 µM under setting [1]; 151 µM and 179 µM under setting [2].
For the compound `CN(CCNc1nnc(-c2cccc(Cl)c2Cl)c(N)n1)C[C@H](O)C(F)(F)F` [Compound 148, (S)-3-((2-((5-amino-6-(2,3-dichlorophenyl)-1,2,4-triazin-3-yl)amino)ethyl)(methyl)amino)-1,1,1-trifluoropropan-2-ol], the half-inhibitory concentration (IC50) by setting is: under setting [1], < 50 µM; under setting [2], 149 µM.

The record behind these values is patent publication US10189859B2, “Derivatives of 6-(2,3-dichlorophenyl)-1,2,4-triazin-5-amine” (Nektar Therapeutics, priority 2013, dated 2019).
